According to BindingDB's records for PubMed 33316752 (University of Sharjah, 2021):

Target: RAF proto-oncogene serine/threonine-protein kinase (Homo sapiens, UniProt P04049)
Assay: Inhibition of RAF1 (unknown origin) incubated for 40 mins by scintillation counting analysis

Chain of RAF proto-oncogene serine/threonine-protein kinase (P04049 whole entry): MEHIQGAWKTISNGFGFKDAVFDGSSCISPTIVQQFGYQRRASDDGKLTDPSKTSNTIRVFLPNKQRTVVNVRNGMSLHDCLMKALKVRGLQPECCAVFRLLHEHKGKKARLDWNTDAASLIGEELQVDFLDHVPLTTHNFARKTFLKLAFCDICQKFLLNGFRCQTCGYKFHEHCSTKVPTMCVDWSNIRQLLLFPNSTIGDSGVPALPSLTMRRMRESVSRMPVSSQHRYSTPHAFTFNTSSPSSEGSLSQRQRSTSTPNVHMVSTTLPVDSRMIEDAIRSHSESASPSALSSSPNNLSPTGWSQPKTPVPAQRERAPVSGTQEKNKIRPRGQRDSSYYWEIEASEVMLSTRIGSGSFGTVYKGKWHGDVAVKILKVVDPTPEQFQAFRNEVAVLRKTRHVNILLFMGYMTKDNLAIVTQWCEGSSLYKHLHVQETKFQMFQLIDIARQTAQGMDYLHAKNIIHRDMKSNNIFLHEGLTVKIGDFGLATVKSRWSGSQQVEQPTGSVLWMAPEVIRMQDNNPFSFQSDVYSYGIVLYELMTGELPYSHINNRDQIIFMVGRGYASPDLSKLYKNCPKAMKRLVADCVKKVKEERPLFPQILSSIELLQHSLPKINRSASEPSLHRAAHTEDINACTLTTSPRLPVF

In the case of `O=C(NCCNc1nccc(-c2c(-c3cccc(O)c3)nc3sccn23)n1)c1ccccc1`, the IC50 is reported as 8.2 nM.
